Series [1] deals with T1, TRPV1 receptor (Rattus norvegicus, UniProt O35433).
T1 construct: DRG neurones naturally express the TRPV1 receptor; endogenous in cells; host or cells: primary culture of newborn rat dorsal root ganglion neurones
Put plainly: Inhibition of the current induced with capsaicin on rat DRGs (whole-cell patch-clamp). The format is cell-based. The settings on record: inhibition of control capsaicin response, newborn rat DRG neurones. As for the experimental part:
Test of Inhibition of the Current Induced with Capsaicin on Rat DRGs
• Primary culture of rat dorsal root ganglion (DRG) cells:
DRG neurones naturally express the TRPV1 receptor.
The primary cultures of newborn rat DRGs are prepared using 1-day-old rats. Briefly, after dissection, the ganglions are trypsinized and the cells dissociated by mechanical trituration. The cells are resuspended in an Eagle basal culture medium containing 10% foetal calf serum, 25 mM KCl, 2 mM glutamine, 100 μg/ml gentamicin and 50 ng/ml of NGF, and then deposited on glass slides coated with laminin (0.25×10^6 cells per slide), which are then placed in Corning 12-well dishes. The cells are incubated at 37° C. in a humidified atmosphere containing 5% CO2 and 95% air. […]
The measuring chambers (volume 800 μl) containing the cell preparation are placed on the platform of an inverted microscope (Olympus IMT2) equipped with Hoffman optics (Modulation Contrast, New York) and observed at a magnification of 400×. […] The overall currents (membrane potential set at −60 mV) are recorded with an Axopatch 1D amplifier (Axon Instruments, Foster City, Calif.), connected to a PC running the Pclamp8 software (Axon Instrument). The current plots are recorded on paper and simultaneously digitized (sampling frequency 15 to 25 Hz) and acquired on the hard drive of the PC. […]
A general note: The patch-clamp technique gives a direct electrical read-out from membranes.

The target of series [2] is T2, TRPV1 receptors (Mus musculus, UniProt Q704Y3).
T2 construct: from tissue; host or cells: live mice, hind leg (in vivo)
The series is described as follows: Pain induced by intraplantar administration of capsaicin to mice. The format is in vivo. Conditions: 10 mg/kg orally 120 minutes before intraplantar capsaicin, n=10, timed over 2 minutes.
Experimental: Pain Induced by Intraplantar Administration of Capsaicin to Mice. The intraplantar injection of capsaicin to mice rapidly produces short-lived nociceptive behaviour, which is reflected by licking, biting and flexing of the administered leg. […] Methodology: (E)-Capsaicin is initially diluted to 3 mg/ml in DMSO, and then diluted again for its final use to 1.5 μg/20 μl in physiological saline. […] The capsaicin is injected into the hind legs of the animal, on the upper face. The test compounds are administered orally 120 minutes before the injection of capsaicin. Two hours after administration of the compounds, the mice are placed in a glass beaker. The nociceptive behaviour of the animals is then assessed immediately by the experimenter, and the duration of the capsaicin-induced behavioural manifestations is timed over a period of 2 minutes (licking and biting, total or partial flexure of the injected leg). For each compound, an inhibition corresponding to the mean of the capsaicin-induced nociceptive responses, in response to a dose of test product (expressed in mg/kg) administered orally to a sample of a given number (n) of mice, is determined.

What is called inhibition is the change of the read-out against control, counted positive when it falls. What is called melting point is the temperature, or range, at which the solid turns liquid.

T1 sequence (O35433 whole entry): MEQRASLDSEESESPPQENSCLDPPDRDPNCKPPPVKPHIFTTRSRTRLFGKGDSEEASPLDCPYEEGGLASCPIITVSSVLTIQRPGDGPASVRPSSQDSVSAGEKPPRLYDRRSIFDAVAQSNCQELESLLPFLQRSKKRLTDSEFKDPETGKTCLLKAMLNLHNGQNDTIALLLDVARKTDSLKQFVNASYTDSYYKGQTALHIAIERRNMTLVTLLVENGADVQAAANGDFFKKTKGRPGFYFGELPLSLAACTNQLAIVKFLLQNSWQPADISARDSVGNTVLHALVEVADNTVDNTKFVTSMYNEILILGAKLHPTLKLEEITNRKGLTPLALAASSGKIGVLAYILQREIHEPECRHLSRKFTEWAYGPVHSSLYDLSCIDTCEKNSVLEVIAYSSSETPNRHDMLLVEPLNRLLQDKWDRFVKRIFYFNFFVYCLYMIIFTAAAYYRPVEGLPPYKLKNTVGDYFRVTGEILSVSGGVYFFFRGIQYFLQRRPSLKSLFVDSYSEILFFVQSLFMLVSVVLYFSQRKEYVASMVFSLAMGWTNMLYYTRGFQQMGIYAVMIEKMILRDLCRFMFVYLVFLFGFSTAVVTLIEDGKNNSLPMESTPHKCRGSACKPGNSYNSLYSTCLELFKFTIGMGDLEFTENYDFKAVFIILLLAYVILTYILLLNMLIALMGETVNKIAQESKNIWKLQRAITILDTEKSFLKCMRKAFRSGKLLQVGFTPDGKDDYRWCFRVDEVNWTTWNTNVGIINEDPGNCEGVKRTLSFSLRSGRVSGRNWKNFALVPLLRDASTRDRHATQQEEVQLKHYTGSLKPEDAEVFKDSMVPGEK
T2 sequence (Q704Y3 whole entry): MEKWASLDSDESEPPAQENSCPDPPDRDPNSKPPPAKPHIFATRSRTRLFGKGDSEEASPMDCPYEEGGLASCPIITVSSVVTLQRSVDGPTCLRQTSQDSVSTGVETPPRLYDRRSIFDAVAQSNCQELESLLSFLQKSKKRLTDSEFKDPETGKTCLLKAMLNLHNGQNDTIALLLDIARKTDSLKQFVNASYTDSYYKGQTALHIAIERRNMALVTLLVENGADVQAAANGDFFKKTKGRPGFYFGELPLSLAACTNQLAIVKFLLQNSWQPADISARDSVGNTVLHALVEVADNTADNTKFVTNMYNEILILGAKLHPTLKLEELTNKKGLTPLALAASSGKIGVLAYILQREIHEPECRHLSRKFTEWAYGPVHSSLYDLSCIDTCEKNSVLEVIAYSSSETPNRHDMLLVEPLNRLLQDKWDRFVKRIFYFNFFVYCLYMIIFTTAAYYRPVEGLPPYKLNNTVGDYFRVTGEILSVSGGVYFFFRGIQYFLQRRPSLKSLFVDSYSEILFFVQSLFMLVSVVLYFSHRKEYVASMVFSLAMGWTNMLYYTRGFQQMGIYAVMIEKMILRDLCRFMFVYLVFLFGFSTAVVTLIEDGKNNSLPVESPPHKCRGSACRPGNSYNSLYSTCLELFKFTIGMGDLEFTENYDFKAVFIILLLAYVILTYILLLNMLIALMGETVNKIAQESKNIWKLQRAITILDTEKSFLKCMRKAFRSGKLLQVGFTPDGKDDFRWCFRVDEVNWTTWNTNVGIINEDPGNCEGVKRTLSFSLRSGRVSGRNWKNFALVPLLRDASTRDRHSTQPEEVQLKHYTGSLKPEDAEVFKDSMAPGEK

In series [1] (0.1 nM compound), `O=C(Nc1cnc2sc(CO)nc2c1)c1cc2cc(F)ccc2n1Cc1cccc(F)c1` [Compound 4, N-(2-Hydroxymethylthiazolo[5,4-b]pyrid-6-yl)-5-fluoro-1-[(3-fluorophenyl)methyl]-1H-indole-2-carboxamide] registered an inhibition at 0.0001 µM of 65.5%. For the same compound, the “% inhibition of the capsaicin-induced nociceptive responses” value in series [2] is on record as 37% (±8%).

Take `Cc1nc2cc(NC(=O)c3cc4cc(F)ccc4n3Cc3cccc(F)c3)cnc2[nH]1` [Compound 11, N-(2-Methyl-3H-imidazo[4,5-b]pyrid-6-yl)-5-fluoro-1-[(3-fluorophenyl)methyl]-1H-indole-2-carboxamide]: the melting point fell in the range of 299 to 300 °C. The compound also showed an inhibition at 0.1 µM in series [1] (100 nM compound) of 62%.

For the origin of these results see patent publication US8299114B2, “Bicyclic derivatives of azabicyclic carboxamides, preparation thereof and therapeutic use thereof” (priority 2008, dated 2012).
